# From ChEMBL document CHEMBL1201862, “PubChem BioAssay data set” (2004)
# The source made the active and inactive calls.
# Columns and labels:
# [1] = C. albicans growth with fluconazole, confirmation, fluorescence, retest (AID 2467); format: functional, cell-based
# Protein Wnt-3a = Protein Wnt-3a (Mus musculus, UniProt P27467); assay: Wnt3a-driven reporter signaling inhibition, dose response, selectivity assay for Gli-SUFU antagonist project, Wnt-LIGHT cells, luminescence (AID 651570); format: functional; details: read-out: IC50_Mean;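 further: Wnt-LIGHT reporter cells stimulated with conditioned medium from Wnt3a-producing cells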
# [2] = NIH-3T3 fibroblast cytotoxicity, dose response, cytotoxicity control, cell-based, fluorescence, Alamar Blue, secondary assay (AID 2327); format: functional;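 further: NIH-3T3 mouse fibroblasts cultured with fluconazole at 8 µg/mL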
# [3] = cytotoxicity toward NIH3T3 fibroblasts, dose response, counter-screen, cell-based, ATP luminescence, mouse fibroblasts (AID 2010); format: functional;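 further: cells exposed to compound for about 90 hours before reading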
# [4] = inhibitors of intracellular T. cruzi replication, confirmation, NIH3T3 host cells, beta-gal luminescence (AID 2044); format: functional, cell-based;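 further: intracellular parasites grown in NIH/3T3 mouse fibroblasts as host cells; luminescent beta-galactosidase reporter signal from transgenic T. cruzi replicating inside host cells; inhibitors lower the luminescence signal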
# [5] = target: T1, High affinity choline transporter 1 (Homo sapiens, UniProt Q9GZV3); assay: CHT inhibitors, dose response, cell-based, 5-point CRC, membrane potential dye (AID 504840); format: functional
# T1 sequence (Q9GZV3 whole entry): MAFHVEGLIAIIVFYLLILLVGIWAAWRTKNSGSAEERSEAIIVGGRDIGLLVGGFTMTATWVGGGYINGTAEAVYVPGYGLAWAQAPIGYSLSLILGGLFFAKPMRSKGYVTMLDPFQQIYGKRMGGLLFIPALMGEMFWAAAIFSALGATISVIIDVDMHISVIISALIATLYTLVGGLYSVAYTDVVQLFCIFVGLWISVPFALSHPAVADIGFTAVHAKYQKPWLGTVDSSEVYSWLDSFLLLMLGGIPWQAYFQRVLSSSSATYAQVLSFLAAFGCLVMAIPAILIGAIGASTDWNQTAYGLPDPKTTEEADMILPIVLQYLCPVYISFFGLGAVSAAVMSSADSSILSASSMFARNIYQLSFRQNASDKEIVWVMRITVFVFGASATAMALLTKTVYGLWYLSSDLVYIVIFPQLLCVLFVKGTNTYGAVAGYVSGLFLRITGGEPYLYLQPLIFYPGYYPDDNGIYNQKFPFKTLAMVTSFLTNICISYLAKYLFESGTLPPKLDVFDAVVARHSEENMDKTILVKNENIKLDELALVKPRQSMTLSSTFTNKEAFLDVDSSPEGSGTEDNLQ
# [6] = target: T1, High affinity choline transporter 1; assay: CHT inhibitors, dose response, cell-based, 10-point CRC, membrane potential dye (AID 588401); format: functional;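 further: membrane potential dye fluorescence of choline-evoked depolarization via CHT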
# [7] = target: ADP-ribosylation factor GTPase-activating protein 1 (Rattus norvegicus, UniProt Q62848); assay: Fluorescence polarization-based biochemical high throughput dose response screening assay to identify inhibitors of ADP-ribosylation factor GTPase activating protein 1 (ARFGAP1).; format: functional
# [8] = target: T2, Zinc finger protein mex-5 (Caenorhabditis elegans, UniProt Q9XUB2); assay: MEX-5/TCR-2 RNA interaction inhibitors, dose response, biochemical, C. elegans, fluorescence polarization (AID 1960)
# T2 sequence (Q9XUB2 whole entry): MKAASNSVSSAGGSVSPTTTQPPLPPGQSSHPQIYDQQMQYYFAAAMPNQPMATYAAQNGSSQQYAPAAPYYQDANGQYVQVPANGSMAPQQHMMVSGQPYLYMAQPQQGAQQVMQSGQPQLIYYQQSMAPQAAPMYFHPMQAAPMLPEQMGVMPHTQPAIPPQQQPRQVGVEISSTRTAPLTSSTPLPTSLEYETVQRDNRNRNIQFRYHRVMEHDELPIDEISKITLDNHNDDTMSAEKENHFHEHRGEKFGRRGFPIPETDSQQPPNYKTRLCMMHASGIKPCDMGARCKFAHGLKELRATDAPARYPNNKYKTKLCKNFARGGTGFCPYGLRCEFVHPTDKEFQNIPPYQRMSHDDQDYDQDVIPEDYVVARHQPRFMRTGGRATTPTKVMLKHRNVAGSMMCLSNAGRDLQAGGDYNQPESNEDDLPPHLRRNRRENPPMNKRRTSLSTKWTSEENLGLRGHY
# [9] = target: T3, Histone-lysine N-methyltransferase NSD2 (Homo sapiens, UniProt O96028); format: biochemical
# T3 sequence (O96028 whole entry): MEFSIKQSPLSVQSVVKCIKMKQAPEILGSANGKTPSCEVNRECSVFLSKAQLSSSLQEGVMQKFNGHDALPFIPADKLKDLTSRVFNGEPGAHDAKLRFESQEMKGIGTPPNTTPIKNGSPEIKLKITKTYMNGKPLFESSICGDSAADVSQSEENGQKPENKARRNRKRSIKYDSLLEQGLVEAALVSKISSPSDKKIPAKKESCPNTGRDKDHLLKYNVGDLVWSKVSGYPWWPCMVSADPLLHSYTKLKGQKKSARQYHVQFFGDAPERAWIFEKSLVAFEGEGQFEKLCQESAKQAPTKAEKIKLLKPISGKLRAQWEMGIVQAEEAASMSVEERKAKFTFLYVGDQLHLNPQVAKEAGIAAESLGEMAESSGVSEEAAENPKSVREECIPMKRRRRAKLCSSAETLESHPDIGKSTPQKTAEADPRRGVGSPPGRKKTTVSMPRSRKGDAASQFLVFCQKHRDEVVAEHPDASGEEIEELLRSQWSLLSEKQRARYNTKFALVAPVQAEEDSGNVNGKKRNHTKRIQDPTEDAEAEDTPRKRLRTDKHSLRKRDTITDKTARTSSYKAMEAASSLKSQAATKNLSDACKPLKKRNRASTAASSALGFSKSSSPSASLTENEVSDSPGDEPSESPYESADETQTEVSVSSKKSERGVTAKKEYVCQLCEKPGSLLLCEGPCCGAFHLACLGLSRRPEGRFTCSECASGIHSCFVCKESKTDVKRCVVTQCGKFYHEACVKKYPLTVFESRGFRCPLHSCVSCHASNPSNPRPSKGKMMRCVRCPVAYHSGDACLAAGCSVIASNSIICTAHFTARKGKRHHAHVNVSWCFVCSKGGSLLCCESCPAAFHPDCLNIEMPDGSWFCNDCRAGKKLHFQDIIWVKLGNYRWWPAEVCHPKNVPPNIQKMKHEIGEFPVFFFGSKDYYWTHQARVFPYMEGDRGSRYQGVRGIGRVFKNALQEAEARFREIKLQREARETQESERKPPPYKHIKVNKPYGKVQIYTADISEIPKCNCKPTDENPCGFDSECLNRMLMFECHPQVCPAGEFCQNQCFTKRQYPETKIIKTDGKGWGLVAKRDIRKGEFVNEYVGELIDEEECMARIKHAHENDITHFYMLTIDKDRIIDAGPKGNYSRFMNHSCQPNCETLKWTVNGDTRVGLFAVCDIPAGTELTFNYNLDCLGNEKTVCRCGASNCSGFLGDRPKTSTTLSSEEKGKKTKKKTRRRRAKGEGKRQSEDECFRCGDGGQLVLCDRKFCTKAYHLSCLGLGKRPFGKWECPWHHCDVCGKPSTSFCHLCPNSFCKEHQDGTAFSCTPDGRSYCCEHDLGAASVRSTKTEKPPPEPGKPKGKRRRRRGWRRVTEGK
# [10] = target: T4, RNA-binding protein pos-1 (Caenorhabditis elegans, UniProt G5EF15); assay: inhibitors of POS-1/mex-3 RNA binding, dose response, biochemical, fluorescence polarization (AID 1964);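 further: purified POS-1 fused to maltose binding protein made in E. coli; potency of compounds blocking POS-1 binding to fluorescent RNA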
# T4 sequence (G5EF15 whole entry): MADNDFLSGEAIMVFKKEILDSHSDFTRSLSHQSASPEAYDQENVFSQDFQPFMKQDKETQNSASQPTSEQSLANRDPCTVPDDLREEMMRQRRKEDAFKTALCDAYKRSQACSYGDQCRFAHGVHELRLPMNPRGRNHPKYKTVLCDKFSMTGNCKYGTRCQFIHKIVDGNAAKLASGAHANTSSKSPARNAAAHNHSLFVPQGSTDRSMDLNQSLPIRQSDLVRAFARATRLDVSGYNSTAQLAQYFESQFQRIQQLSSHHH
# [11] = target: T5, Carboxy-terminal domain RNA polymerase II polypeptide A small phosphatase 1 (Homo sapiens, UniProt Q9GZU7); assay: inhibitors of CTDSP1, concentration-response testing, biochemical assay, absorbance-based, actives from ultra-high-throughput screening (AID 540297); format: functional
# T5 sequence (Q9GZU7 whole entry): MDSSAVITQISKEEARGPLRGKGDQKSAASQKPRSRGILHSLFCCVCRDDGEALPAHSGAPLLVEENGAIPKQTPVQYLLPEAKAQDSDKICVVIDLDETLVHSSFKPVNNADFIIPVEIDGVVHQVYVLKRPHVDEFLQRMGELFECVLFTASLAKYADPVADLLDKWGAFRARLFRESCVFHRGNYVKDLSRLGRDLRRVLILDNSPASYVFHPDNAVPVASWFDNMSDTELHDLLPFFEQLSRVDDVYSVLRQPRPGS
# [12] = target: DNA (cytosine-5)-methyltransferase 1 (Homo sapiens, UniProt P26358); assay: DNMT1 methyltransferase inhibitors, confirmation, biochemical, fluorescent molecular beacon (AID 602386); format: functional
# [13] = Luminescence Cell-Based Dose Retest to Confirm Inhibitors of Cancer Stem Cells. [Related pubchem assays (depositor defined):AID2717, AID2721]; format: functional; details: Homo sapiens
# [14] = HIV-1 Env-mediated cell fusion inhibitors, dose response, CCR5-tropic Env (AID 2279); format: functional
# [15] = target: Induced myeloid leukemia cell differentiation protein Mcl-1 (Homo sapiens, UniProt Q07820); format: functional
# [16] = HEp-2 cell cytotoxicity, dose response, cytotoxicity control for RSV inhibitor project, HTS (AID 2410); format: functional; details: human respiratory syncytial virus
# [17] = cytotoxicity in HEK-293T cells, dose response, cytotoxicity control for TCR NF-kB inhibitor project, luminescence, T-cell screen hits (AID 489026); format: functional, cell-based;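 further: cells exposed to compound about 14 hours before the viability readout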
# [18] = target: Photoreceptor-specific nuclear receptor (Homo sapiens, UniProt Q9Y5X4); format: functional, cell-based;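 further: CHO-S cells with Gal4-NCOR and VP16-NR2E3 two-hybrid luciferase reporter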
# [19] = target: T6, Sentrin-specific protease 8 (Homo sapiens, UniProt Q96LD8); format: functional
# T6 sequence (Q96LD8 whole entry): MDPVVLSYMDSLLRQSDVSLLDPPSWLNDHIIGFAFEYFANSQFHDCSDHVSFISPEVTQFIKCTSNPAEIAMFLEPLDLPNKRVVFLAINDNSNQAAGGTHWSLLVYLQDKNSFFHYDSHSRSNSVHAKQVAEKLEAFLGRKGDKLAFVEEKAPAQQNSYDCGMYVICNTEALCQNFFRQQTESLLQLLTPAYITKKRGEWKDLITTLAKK
# [20] = target: T6, Sentrin-specific protease 8; format: functional; remark: listed apart in the source
# [21] = HEK293T cytotoxicity, dose response, cytotoxicity control for miR-122 modulator project, cell-based, inhibitor set, cherry-pick, set 2 (AID 720697); format: functional
# [22] = miR-122 activators in hepatoma reporter cells, dose response, cell-based, Huh7 psiCHECK-miR122, Renilla luciferase, cherry-picked (AID 651956); format: functional;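 further: huh7 hepatoma cells stably carrying a psiCHECK-2 miR-122 sensor plasmid; renilla luciferase signal reporting endogenous miR-122 activity after 48 h compound exposure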
# [23] = target: Hepatocyte nuclear factor 4-alpha (Homo sapiens, UniProt P41235); format: functional, cell-based;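 further: biochemical luminescence-based dose-response counterscreen measuring inhibition of HNF4 dimerization, run alongside a screen for blockers of ABHD5–perilipin-5 interaction; split luciferase complementation of HNF4 fusion proteins in cell lysate measuring dimerization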
# [24] = target: T7, Mitochondrial peptide methionine sulfoxide reductase (Bos taurus, UniProt P54149); format: functional;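 further: absorbance read-out, biochemical high-throughput dose-response screen for MsrA inhibitors, confirmatory; recombinant bovine MsrA coupled to E. coli TrxB with NADPH and selenocystamine; potency is for inhibitors of MsrA activity on DMSO substrate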
# T7 sequence (P54149 whole entry): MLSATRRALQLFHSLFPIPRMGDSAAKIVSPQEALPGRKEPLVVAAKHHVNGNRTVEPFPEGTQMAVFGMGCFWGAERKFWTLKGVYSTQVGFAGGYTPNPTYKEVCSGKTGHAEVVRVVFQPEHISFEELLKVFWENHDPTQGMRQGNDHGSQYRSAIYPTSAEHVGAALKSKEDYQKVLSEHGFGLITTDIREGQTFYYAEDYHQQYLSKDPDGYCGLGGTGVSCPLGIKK
# Protein Wnt-3a, sequence (P27467 whole entry): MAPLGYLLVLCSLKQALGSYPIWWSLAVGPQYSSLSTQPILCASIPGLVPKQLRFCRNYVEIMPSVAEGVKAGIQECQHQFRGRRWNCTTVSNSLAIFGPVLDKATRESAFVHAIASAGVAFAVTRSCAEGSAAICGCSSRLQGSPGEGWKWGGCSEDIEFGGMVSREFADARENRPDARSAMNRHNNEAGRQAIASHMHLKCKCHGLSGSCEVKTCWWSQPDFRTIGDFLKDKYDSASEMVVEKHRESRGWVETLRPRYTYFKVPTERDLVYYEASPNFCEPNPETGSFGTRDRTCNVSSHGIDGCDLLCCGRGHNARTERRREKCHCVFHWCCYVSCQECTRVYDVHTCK
# DNA (cytosine-5)-methyltransferase 1, sequence (P26358 whole entry): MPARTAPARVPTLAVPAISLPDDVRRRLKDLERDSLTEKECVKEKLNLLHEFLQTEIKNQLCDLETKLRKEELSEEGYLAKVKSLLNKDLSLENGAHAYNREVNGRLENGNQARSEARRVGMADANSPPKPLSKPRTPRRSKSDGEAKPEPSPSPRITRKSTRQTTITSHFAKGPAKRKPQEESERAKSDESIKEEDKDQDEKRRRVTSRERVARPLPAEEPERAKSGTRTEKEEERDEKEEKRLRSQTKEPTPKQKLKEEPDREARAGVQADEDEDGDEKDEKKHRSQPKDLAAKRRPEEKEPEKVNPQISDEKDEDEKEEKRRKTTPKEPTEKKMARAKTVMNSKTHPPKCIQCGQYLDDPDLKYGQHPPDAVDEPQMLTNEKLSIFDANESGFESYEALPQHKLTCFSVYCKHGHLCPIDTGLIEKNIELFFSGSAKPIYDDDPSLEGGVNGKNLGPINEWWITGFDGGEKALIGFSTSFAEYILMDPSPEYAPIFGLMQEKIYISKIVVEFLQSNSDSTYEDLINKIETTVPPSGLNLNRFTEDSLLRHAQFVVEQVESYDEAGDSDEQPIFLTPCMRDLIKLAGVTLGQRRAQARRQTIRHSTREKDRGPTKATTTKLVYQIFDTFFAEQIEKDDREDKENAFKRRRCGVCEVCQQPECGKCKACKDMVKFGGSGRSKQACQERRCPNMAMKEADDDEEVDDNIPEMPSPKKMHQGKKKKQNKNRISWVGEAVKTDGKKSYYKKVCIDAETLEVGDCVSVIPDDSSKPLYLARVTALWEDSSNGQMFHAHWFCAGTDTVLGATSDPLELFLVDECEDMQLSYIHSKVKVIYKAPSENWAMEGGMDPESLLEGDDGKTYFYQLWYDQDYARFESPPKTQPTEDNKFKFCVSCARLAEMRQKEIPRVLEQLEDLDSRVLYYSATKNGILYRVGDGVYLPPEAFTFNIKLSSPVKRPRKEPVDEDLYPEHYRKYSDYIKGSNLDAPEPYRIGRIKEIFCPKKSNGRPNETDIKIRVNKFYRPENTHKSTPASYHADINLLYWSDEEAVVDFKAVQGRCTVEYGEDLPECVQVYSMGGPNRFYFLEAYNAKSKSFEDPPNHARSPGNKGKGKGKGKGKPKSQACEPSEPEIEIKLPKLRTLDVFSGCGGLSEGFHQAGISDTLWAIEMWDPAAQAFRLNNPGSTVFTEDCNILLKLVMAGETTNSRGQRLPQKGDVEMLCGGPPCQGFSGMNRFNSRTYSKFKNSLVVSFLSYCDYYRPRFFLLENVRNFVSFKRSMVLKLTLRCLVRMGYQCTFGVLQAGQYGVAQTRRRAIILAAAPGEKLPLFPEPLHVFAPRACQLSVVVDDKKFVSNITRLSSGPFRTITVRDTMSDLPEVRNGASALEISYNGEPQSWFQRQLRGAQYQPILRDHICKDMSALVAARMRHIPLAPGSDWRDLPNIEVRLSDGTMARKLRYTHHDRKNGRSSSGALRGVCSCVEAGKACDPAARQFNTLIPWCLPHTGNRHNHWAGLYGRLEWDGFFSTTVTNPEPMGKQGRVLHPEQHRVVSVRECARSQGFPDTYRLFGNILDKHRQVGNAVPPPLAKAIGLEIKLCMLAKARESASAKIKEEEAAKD
# Hepatocyte nuclear factor 4-alpha, sequence (P41235 whole entry, the tested form may be a part): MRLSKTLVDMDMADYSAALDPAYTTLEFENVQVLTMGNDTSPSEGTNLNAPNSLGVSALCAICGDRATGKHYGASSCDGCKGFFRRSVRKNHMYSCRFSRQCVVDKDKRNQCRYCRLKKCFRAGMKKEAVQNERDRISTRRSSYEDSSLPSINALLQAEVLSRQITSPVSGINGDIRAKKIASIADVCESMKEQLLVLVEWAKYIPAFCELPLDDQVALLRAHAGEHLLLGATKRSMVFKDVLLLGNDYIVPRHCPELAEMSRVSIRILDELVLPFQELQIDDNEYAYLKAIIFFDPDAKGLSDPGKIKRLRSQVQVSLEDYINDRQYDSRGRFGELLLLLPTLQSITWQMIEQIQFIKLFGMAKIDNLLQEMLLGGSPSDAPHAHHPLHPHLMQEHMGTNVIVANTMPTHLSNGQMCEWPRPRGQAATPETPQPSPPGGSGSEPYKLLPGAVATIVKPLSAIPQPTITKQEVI
# Induced myeloid leukemia cell differentiation protein Mcl-1, sequence (Q07820 whole entry): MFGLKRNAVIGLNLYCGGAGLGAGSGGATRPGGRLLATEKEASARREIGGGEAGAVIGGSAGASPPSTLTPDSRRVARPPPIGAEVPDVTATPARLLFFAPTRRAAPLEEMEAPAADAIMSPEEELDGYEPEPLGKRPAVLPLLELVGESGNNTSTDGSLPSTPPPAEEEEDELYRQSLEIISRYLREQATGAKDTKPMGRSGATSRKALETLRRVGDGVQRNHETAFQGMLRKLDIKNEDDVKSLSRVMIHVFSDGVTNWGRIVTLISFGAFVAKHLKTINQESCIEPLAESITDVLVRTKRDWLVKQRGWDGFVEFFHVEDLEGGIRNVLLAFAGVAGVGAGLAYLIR
# ADP-ribosylation factor GTPase-activating protein 1, sequence (Q62848 whole entry): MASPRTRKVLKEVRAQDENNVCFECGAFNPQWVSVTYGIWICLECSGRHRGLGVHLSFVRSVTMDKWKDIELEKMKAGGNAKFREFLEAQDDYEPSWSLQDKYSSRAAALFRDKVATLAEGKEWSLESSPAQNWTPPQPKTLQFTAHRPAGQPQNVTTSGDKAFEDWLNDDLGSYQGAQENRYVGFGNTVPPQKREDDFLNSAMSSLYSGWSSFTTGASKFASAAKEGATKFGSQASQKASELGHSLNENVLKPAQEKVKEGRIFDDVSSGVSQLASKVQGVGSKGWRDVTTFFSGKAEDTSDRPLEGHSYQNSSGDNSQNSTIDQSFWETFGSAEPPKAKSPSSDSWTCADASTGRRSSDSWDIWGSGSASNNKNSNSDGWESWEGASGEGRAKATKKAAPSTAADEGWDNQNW
# Photoreceptor-specific nuclear receptor, sequence (Q9Y5X4 whole entry, the tested form may be a part): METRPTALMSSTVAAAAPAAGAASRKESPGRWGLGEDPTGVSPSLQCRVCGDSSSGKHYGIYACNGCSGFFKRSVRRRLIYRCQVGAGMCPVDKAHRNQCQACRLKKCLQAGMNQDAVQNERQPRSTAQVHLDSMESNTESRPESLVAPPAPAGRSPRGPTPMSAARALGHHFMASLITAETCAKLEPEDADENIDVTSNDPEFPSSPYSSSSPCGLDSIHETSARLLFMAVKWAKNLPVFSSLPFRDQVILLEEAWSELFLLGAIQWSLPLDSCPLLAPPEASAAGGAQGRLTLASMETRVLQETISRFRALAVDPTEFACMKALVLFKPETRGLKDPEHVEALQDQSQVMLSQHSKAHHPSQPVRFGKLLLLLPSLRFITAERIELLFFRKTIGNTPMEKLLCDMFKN
structure (smiles),measurement,setting,value
Cc1c(CCOC(=O)C23CC4CC(CC(C)(C4)C2)C3)sc[n+]1Cc1ccccc1,EC50,[1],2.08 µM (active)
same,IC50,Protein Wnt-3a,32 µM (inactive)
same,EC50,[2],> 150 µM (inactive)
COc1ccccc1CCNC(=O)c1cc(-c2ccncc2)nc2ccc(Br)cc12,IC50,Protein Wnt-3a,10.9 µM (active)
same,EC50,[3],> 60 µM (not active)
same,EC50,[4],0.874 µM (active)
N=C1CCCN1CC(=O)c1ccc(Br)cc1,IC50,[5],6.07 µM (active)
same,IC50,[6],1.06 µM (active)
O=C(Nc1ccc(S(=O)(=O)NCC2CCCO2)cc1)c1ccc(Cl)cc1[N+](=O)[O-] (configuration not stated),IC50,[5],7.39 µM (active)
same,IC50,[6],4.47 µM (active)
COc1ccc(-n2nc3c(N4CCC(C(=O)NCc5ccccc5)CC4)nnc(C)c3c2C)cc1,IC50,[7],40.6 µM (inactive)
CCOc1cccc(N2C(=O)/C(=C/c3ccco3)C(=O)NC2=S)c1,EC50,[8],> 300 µM (not active)
same,AC50,[9],1.04 µM (active)
same,EC50,[10],> 300 µM (not active)
same,IC50,[11],1.6 µM (active)
same,IC50,[12],4.24 µM (active)
O=C(O)CCCCCN1C(=O)/C(=C\c2cn(-c3ccccc3)nc2-c2cccs2)SC1=S,AC50,[13],3.54 µM (active)
same,IC50,[14],37.4 µM (active)
same,IC50,[12],6.97 µM (active)
same,IC50,[15],2.31 µM (active)
same,CC50,[16],12 µM (active)
COc1cc2nc(CN3CC=C(c4ccccc4)CC3)nc(O)c2cc1OC,AC50,[13],0.609 µM (active)
same,IC50,[17],> 80 µM (inactive)
same,IC50,[18],0.0655 µM (active)
O=C1NC(=O)C(Nc2ccc(Cl)c(Cl)c2)C(=O)N1,IC50,[19],8.82 µM (active)
same,IC50,[20],10.9 µM (active)
CC1CCCC(NC(=O)c2ccc(C/N=c3\c(N4CCCC4)c(O)c3=O)cc2)C1C (configuration not stated),IC50,[5],0.851 µM (active)
same,IC50,[6],0.501 µM (active)
Cc1cc(C(=O)Nc2ccc3c(c2)C(=O)N(C)[C@@H]2CC[C@H](CC(=O)N[C@@H](C)c4ccccc4)O[C@H]2CO3)no1,AC50,[21],1.12 µM (active)
same,AC50,[22],57.6 µM (active)
O=C(Nc1ccc2c(c1)OCCO2)C(c1ccnc2ccccc12)n1c(=O)c(-c2ccco2)nc2ccccc21 (configuration not stated),IC50,[23],18.9 µM (inactive)
COc1ccc(/C=N/n2c(S)nnc2C2CCCCC2)c(OC)c1,IC50,[24],155 µM (inactive)
